Reference: US20220324835A1 (Nurix Therapeutics, Inc., priority 2018, published 2022)

Legend:
T-cell [1] = test: CD25 cell surface staining on T-cells co-stimulated with anti-CD3 and anti-CD28 antibody (Biological Example 2); assay type: cell-based, human; settings: Homo sapiens, T-cell, primary human total T-cells, baseline = anti-CD3/anti-CD28 stimulated cells without inhibitor, read-out: CD25 staining, Anti-CD3/Anti-CD28 stimulation, fold change over baseline; for fold induction at 0.3 µM: 0.3 μM compound; for fold induction at 1 µM: 1 μM compound; for fold induction at 4 µM: 4 μM compound
Procedure, shortened: (§1)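 No assay protocol given; T-cells stimulated with anti-CD3 alone or anti-CD3 plus anti-CD28, with or without Cbl-b inhibitor. Activation read as IL-2 secretion or CD25 surface staining, expressed as fold over baseline from uninhibited cells […].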

T-cell [2] = test: CD25 cell surface staining on T-cells stimulated with anti-CD3 antibody alone (Biological Example 2); assay type: cell-based; settings: primary human total T-cells, baseline = anti-CD3/anti-CD28 stimulated cells without inhibitor, read-out: CD25 staining, Anti-CD3 stimulation, fold change over baseline; for fold induction at 1 µM: 1 μM compound; for fold induction at 8 µM: 8 μM compound
Cbl-b [3] = target: T1, Cbl-b (Homo sapiens, UniProt Q13191); test: Cbl-b inhibition assay (Cbl-b activity assay, FRET, Biological Example 1; 100 mM NaCl, 60 nM Src kinase); assay type: biochemical; settings: upper bound stated in text lists; read-out: IC50 values in the Cbl-b inhibition assay of Biological Example 1
T1 sequence (Q13191 36-427): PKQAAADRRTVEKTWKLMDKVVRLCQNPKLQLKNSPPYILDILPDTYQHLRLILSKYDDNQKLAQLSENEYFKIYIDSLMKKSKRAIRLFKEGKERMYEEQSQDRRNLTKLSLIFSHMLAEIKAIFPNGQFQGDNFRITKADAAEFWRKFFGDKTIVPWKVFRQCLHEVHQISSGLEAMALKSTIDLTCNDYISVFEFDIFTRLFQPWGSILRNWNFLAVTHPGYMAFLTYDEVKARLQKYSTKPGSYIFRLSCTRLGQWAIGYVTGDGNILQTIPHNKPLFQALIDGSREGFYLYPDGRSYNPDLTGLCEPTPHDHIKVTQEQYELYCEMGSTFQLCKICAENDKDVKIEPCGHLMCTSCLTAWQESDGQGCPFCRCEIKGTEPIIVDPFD
Procedure, shortened: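 Inhibitor activity is measured as reduced terbium-to-fluorescein FRET between streptavidin-terbium on biotinylated Cbl-b and Bodipy-fluorescein ubiquitin carried by an irreversible UbcH5B-Ub conjugate, binding of which depends on Src phosphorylation of Cbl-b.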

T-cell [4] = test: IL-2 secretion from T-cells stimulated with anti-CD3 antibody alone (Biological Example 2); assay type: cell-based; settings: primary human total T-cells, read-out: IL-2 secretion, Anti-CD3 stimulation, fold change over baseline; for fold induction at 1 µM: 1 μM compound; for fold induction at 8 µM: 8 μM compound
Cbl-b [5] = target: T1, Cbl-b; test: Cbl-b activity assay (Cbl-b inhibition assay), TR-FRET of Cbl-b interaction with UbcH5B-Ub; assay type: biochemical; settings: assay buffer with 100 mM NaCl, 60 nM Src kinase; read-out: Cbl-b activity IC50
Procedure, shortened: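 TR-FRET readout of Cbl-b binding to Bodipy-fluorescein N-terminally labeled Ub conjugated to UbcH5B C85K, measured with compound present. After compound incubation, 60 nM Src kinase with 1 mM ATP and 5 mM MgCl2 (final) was added for 1.5 h, then a further 1 h incubation; asterisked values used 50 mM NaCl buffer and 30 nM Src.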

T-cell [6] = test: IL-2 secretion from T-cells co-stimulated with anti-CD3 and anti-CD28 antibody (Biological Example 2); assay type: cell-based, human; settings: Homo sapiens, T-cell, primary human total T-cells, baseline = anti-CD3/anti-CD28 stimulated cells without inhibitor, read-out: IL-2 secretion, Anti-CD3/Anti-CD28 stimulation, fold change over baseline; for fold induction at 0.3 µM: 0.3 μM compound; for fold induction at 1 µM: 1 μM compound; for fold induction at 4 µM: 4 μM compound
Procedure, shortened: as §1

Row | Compound | fold induction at 0.3 µM (T-cell [1]) | fold induction at 1 µM (T-cell [1]) | fold induction at 4 µM (T-cell [1]) | fold induction at 1 µM (T-cell [2]) | fold induction at 8 µM (T-cell [2]) | IC50 (Cbl-b [3]) [nM] | fold induction at 1 µM (T-cell [4]) | fold induction at 8 µM (T-cell [4]) | IC50 (Cbl-b [5]) [nM] | fold induction at 0.3 µM (T-cell [6]) | fold induction at 1 µM (T-cell [6]) | fold induction at 4 µM (T-cell [6])
1 | CC(c1cc2c(c(C(F)(F)F)c1)CN(c1cccc([C@H]3C[C@H]3c3nncn3C)c1)C2=O)N1CC[C@H](F)C1 (stereo partly drawn) [Compound 466, 6-(1-((S)-3-fluoropyrrolidin-1-yl)ethyl)-2-(3-((1S,2R)-2-(4-methyl-4H-1,2,4-triazol-3-yl)cyclopropyl)phenyl)-4-(trifluoromethyl)isoindolin-1-one] | 1.31 to 1.5 | 1.51 to 1.75 | 1.51 to 1.75 | > 1 | > 1 | ≤ 100 | > 0.201 | > 0.201 | < 100 | 2.51 to 5 | > 7.5 | > 7.5
2 | CCOc1cc(N2Cc3c(cc(CN4CC[C@H](F)C4)cc3C(F)(F)F)C2=O)cc(C2(Cc3nncn3C)COC2)c1 [Compound 468, 2-(3-ethoxy-5-{3-[(4-methyl-4H-1,2,4-triazol-3-yl)methyl]oxetan-3-yl}phenyl)-6-{[(3×)-3-fluoropyrrolidin-1-yl]methyl}-4-(trifluoromethyl)-2,3-dihydro-1H-isoindol-1-one] | 1.31 to 1.5 | 1.31 to 1.5 | – | > 1 | – | ≤ 100 | > 0.201 | – | < 100 | 5 to 7.5 | > 7.5 | –
3 | CCOc1cc([C@@](C)(F)C(F)(F)c2nncn2C)cc(NC(=O)c2cc(C)nc(C3CC3)n2)n1 [Compound 469, 2-cyclopropyl-N-{6-ethoxy-4-[(2R)-1,1,2-trifluoro-1-(4-methyl-4H-1,2,4-triazol-3-yl)propan-2-yl]pyridin-2-yl}-6-methylpyrimidine-4-carboxamide] | 1.01 to 1.3 | 1.01 to 1.3 | – | 0.801 to 1 | – | ≤ 300 | 0.101 to 0.15 | – | 100 to 300 | 1.01 to 2.5 | 1.01 to 2.5 | –
4 | Cn1cnnc1C[C@]1(c2cccc(N3Cc4c(cccc4C(F)(F)F)C3=O)c2)C[C@H](CO)C1 [Compound 470, 2-{3-[(1R,3R)-3-(hydroxymethyl)-1-[(4-methyl-4H-1,2,4-triazol-3-yl)methyl]cyclobutyl]phenyl}-4-(trifluoromethyl)-2,3-dihydro-1H-isoindol-1-one] | 1.31 to 1.5 | 1.51 to 1.75 | 1.51 to 1.75 | 0.801 to 1 | > 1 | ≤ 300 | 0.101 to 0.15 | > 0.201 | 100 to 300 | 1.01 to 2.5 | 2.51 to 5 | 5 to 7.5
5 | C[C@H](Cc1nocc1C(F)(F)F)c1cccc(N2Cc3c(cc(C(=O)N4CC[C@H](O)C4)cc3C(F)(F)F)C2=O)c1 [Compound 484, 6-[(3S)-3-hydroxypyrrolidine-1-carbonyl]-4-(trifluoromethyl)-2-[3-[(2R)-1-[4-(trifluoromethyl)-1,2-oxazol-3-yl]propan-2-yl]phenyl]-2,3-dihydro-1H-isoindol-1-one] | 1.01 to 1.3 | 1.01 to 1.3 | 1.31 to 1.5 | 0.601 to 0.8 | > 1 | ≤ 300 | 0.051 to 0.1 | > 0.201 | 100 to 300 | 1.01 to 2.5 | 1.01 to 2.5 | 2.51 to 5
6 | C[C@H](Cc1nocc1C(F)(F)F)c1cccc(N2Cc3c(cc(CN4CC[C@H](F)C4)cc3C(F)(F)F)C2=O)c1 [Compound 485, 6-[[(3S)-3-fluoropyrrolidin-1-yl]methyl]-4-(trifluoromethyl)-2-[3-[(2R)-1-[4-(trifluoromethyl)-1,2-oxazol-3-yl]propan-2-yl]phenyl]-2,3-dihydro-1H-isoindol-1-one] | 1.01 to 1.3 | 1.01 to 1.3 | 1.31 to 1.5 | 0.601 to 0.8 | > 1 | ≤ 300 | < 0.05 | 0.101 to 0.15 | 100 to 300 | 1.01 to 2.5 | 1.01 to 2.5 | 2.51 to 5
7 | Cn1cnnc1CC1(c2cccc(N3Cc4c(cc(CN5CCCC6CC65)cc4C(F)(F)F)C3=O)c2)COC1 (stereo not shown) [Compound 490, 6-((2-azabicyclo[4.1.0]heptan-2-yl)methyl)-2-(3-(3-((4-methyl-4H-1,2,4-triazol-3-yl)methyl)oxetan-3-yl)phenyl)-4-(trifluoromethyl)isoindolin-1-one] | 1.01 to 1.3 | 1.01 to 1.3 | – | > 1 | – | ≤ 100 | > 0.201 | – | < 100 | > 7.5 | > 7.5 | –
8 | Cn1cnnc1CC1(c2cccc(N3Cc4c(cc(CN5CC6CC6(C)C5)cc4C(F)(F)F)C3=O)c2)COC1 (stereo not shown) [Compound 491, 6-((1-methyl-3-azabicyclo[3.1.0]hexan-3-yl)methyl)-2-(3-(3-((4-methyl-4H-1,2,4-triazol-3-yl)methyl)oxetan-3-yl)phenyl)-4-(trifluoromethyl)isoindolin-1-one] | 1.01 to 1.3 | 1.01 to 1.3 | – | > 1 | – | ≤ 100 | > 0.201 | – | < 100 | > 7.5 | > 7.5 | –
9 | Cn1cnnc1CC1(c2cccc(NC(=O)c3csc(C(F)(F)F)n3)c2)COC1 [Compound 492, N-(3-{3-[(4-methyl-1,2,4-triazol-3-yl)methyl]oxetan-3-yl}phenyl)-2-(trifluoromethyl)-1,3-thiazole-4-carboxamide] | 1.01 to 1.3 | 1.01 to 1.3 | – | 0.601 to 0.8 | – | ≤ 100 | 0.051 to 0.1 | – | < 100 | 1.01 to 2.5 | 1.01 to 2.5 | –
10 | Cn1cnnc1CC1(c2cccc(NC(=O)c3nc(C4CC4)cs3)c2)COC1 [Compound 493, 4-cyclopropyl-N-(3-{3-[(4-methyl-1,2,4-triazol-3-yl)methyl]oxetan-3-yl}phenyl)-1,3-thiazole-2-carboxamide] | 1.01 to 1.3 | 1.01 to 1.3 | – | < 0.6 | – | ≤ 1000 | < 0.05 | – | 301 to 1000 | < 1 | 1.01 to 2.5 | –
11 | Cn1cnnc1CC1(c2cccc(NC(=O)c3csc(C4CC4)n3)c2)COC1 [Compound 494, 2-cyclopropyl-N-(3-{3-[(4-methyl-1,2,4-triazol-3-yl)methyl]oxetan-3-yl}phenyl)-1,3-thiazole-4-carboxamide] | 1.01 to 1.3 | 1.01 to 1.3 | – | 0.601 to 0.8 | – | ≤ 300 | 0.051 to 0.1 | – | 100 to 300 | 1.01 to 2.5 | 1.01 to 2.5 | –
12 | Cn1cnnc1CC1(c2cccc(NC(=O)c3cc(CN4CCC5CC54)cc(C4CC4)n3)c2)COC1 (stereo not shown) [Compound 497, 4-{2-azabicyclo[3.1.0]hexan-2-ylmethyl}-6-cyclopropyl-N-(3-{3-[(4-methyl-1,2,4-triazol-3-yl)methyl]oxetan-3-yl}phenyl)pyridine-2-carboxamide] | 1.31 to 1.5 | 1.31 to 1.5 | – | > 1 | – | ≤ 100 | > 0.201 | – | < 100 | > 7.5 | > 7.5 | –
